For data set [1], the target named is T1, Constitutive androstane receptor (CAR) (Homo sapiens, UniProt Q14994).
T1 construct: The pGL4-gtPBREM plasmid was transfected into Hep3B cells; endogenous in cells
T1 sequence (Q14994 1-352): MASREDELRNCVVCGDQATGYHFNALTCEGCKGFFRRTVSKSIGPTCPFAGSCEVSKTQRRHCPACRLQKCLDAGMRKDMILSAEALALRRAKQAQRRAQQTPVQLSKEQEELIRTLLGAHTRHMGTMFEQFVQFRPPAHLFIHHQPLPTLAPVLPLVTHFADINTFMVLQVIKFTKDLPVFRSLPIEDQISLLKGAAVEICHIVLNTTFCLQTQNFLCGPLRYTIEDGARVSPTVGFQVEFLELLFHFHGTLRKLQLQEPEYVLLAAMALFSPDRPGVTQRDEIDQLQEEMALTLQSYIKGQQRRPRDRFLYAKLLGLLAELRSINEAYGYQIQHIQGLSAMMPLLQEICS
The experiment in a line: In vitro CAR activation screening assay (UGT1A1 promoter gtPBREM-pGL4 luciferase reporter in Hep3B-gtPBREM cells). Type of data set: cell-based. As to conditions: for activation at 10 µM: read-out: CAR Activation Fold. An excerpt: Until now, there is no commercially available high throughput screening method for CAR activation. Traditionally, CAR activation can be detected in western blots by its downstream signals such as UGT1A1, MRP2 or CYP2B6. […] However, this method was slow and pricy. In order to rapidly screen all the compounds for CAR activation at less cost, an in vitro CAR activation screening assay was developed: DNA was extracted from Hep3B cells and UGT1A1 promoter was obtained using PCR amplification. Ligation between UGT1A1 promoter and pGL4 vector was performed and the plasmid was amplified via E. coli replication. The desired plasmid was extracted from E. coli and transfected into Hep3B. The desired colony bearing UGT1A1 promoter-pGL4 plasmid was selected by neomycin. CAR activation was measured by adding tested compounds to Hep3B for several hours and luminescence was measured. Higher activation will get higher luminescence readout. This assay system was validated with two different CAR agonists: CITCO (direct agonist) and scoparone (an indirect agonist). […] Different concentration of scoparone at 1, 5, 10 and 20 μM had been tested either for luciferase assay or downstream UGT1A1 and MRP2 expression (data not shown) and 10 μM was selected to be the best condition for the following work.
After successfully establishing the in vitro assay, all of the coumarin compounds were subjected to the screening (at 10 μM) and their SAR was discussed. Although the reporter system can successfully identify CAR-activating compounds under 8 h and display better efficiency and sensitivity compared with western blots, it only presented a medium luciferase response. According to previous studies, CITCO was reported to only moderately enhance human CAR (less than 2-fold), compared with the enhance provided by TCPOBOP for murine CAR (5- to 10-fold) in luciferase reporter assays. […] Another possibility for the medium response in our reporter system might be the contribution of the whole gtPBREM element which might include response-suppressive elements that was used and the single nucleotide variation of DR3 element which was reported to slightly reduce the original UGT1A1 activity.
The genomic DNA was isolated from Hep3B cells using Wizard® Genomic DNA Purification Kit (Promega, Fitchburg, WI, USA). The promoter region of UGT1A1 gene, gtPBREM element, was amplified by AccuPrime^TM Taq DNA Polymerase High Fidelity Kit (Invitrogen, MA, USA). The sequence of the amplified element was confirmed by DNA sequencing company and cloned into pGL4 luciferase reporter vector. The pGL4-gtPBREM plasmid was transfected into Hep3B cells. The stable pGL4-gtPBREM transfected Hep3B cells, Hep3B-gtPBREM cells, were established after G418 selection. The luciferase activity represented of CAR activation ability was measured using individual established clone. Further, CAR-shRNA was obtained from the Genomic Research Center and transfected into Hep3B-gtPBREM cells. The transient transfected shCAR-Hep3B-gtPBREM cells were used for further luciferase assays.
The Hep3B-gtPBREM cells and shCAR-Hep3B-gtPBREM cells (1.5 × 10^5 cells/well) were seeded into 12-well plates for overnight then pre-determined concentration compounds were added for desired time. After treatment, transfected cells were washed twice in PBS, lysated with 1× passive lysis buffer and luciferase intensity of equal amount of cell lysate was measured by a Synergy HT Multi-Mode Microplate Reader (BioTek, Winooski, VT, USA).
(In general: A reporter such as luciferase makes a cellular process visible.)

Data set [2] has as its system phosphoenopyruvate carboxykinse (PEPCK) mRNA expression. The experiment in a line: PEPCK mRNA expression induced by dexamethasone and 8-bromo-cAMP in H4IIE cells. As to conditions: dexamethasone (500 nM) + 8-bromo-cAMP. Type of data set: cell-based, rat. On the procedure: S21 Effects of scoparone, 50 (PLH), and 6 on phosphoenopyruvate carboxykinse (PEPCK) mRNA expression induced by dexamethasone and 8-bromo-cAMP.
A quantified result of dexamethasone (500 nM) and 8-bromo-cAMP (100µM) induced PEPCK mRNA expression in the presence or absence of scoparone, 50 (PLH) and 6 at 0.78 µM was shown. Insulin (10 nM) was served as an experimental control. Quantified data was presented as mean ± S.E.M. (n = 4). **P < 0.01 and ***P < 0.001 when compared with induction control (None).
PEPCK mRNA could be induced by dexamethasone and 8-bromo-cAMP after 3hr. The presence of insulin […]
Scoparone, at 0.78 µM, can suppress PEPCK
In contrast, both 50 (PLH) and 6 could also suppress PEPCK
Cell culture: The rat H4IIE cells were cultured in Dulbecco’s Modified Eagle’sMedium (DMEM) containing 1 g/L glucose, 5% (v/v) fetal calf serum (FBS) and 1% (v/v) antibiotics (100 U/mL penicillin and 0.1 g/L streptomycin). Cultured cells were maintained at 37 ◦C in an atmosphere of 5% CO2 and 95% air.
The measurement of PEPCK gene expression: H4IIE cells were seeded into 6 cm dish and allowed for the attachment. After serum starvation overnight, cells were treated with various conditions described in the figure legend. After treatment, total RNA of each treatment was extracted using TRI-reagent according to the manufacturer’s instructions. The pelleted RNA was dissolved in distilled water, quantified with NanoDrop™ 1000 Spectrophotometer (Thermo Fisher Scientific, USA) and stored at −70 ◦C. Total RNA (1µg) was reverse transcribed to generate templates. 50 ng of cDNA was employed for further PCR. The sequences of […]
primers for β-actin: 5’-[…]- 3’ and 5’-[…]-3’ and […]
(1 picture or pasted object on this page, not shown here)

The test system of the next data set is CAR protein. The experiment in a line: Immunofluorescence staining for CAR translocation in Hep3B cells. As to conditions: pre-treated with 10 nM okadaic acid, then 50 (10 μM) 2 h. Type of data set: cell-based, human. As for the experimental part: Figure 3 Image of immunofluorescence staining for CAR translocation in Hep3B cells after 6,7-diprenoxycoumarin (50) treatment (A) and scoparone treatment (C). Hep3B cells were treated with 50 (10 μM) for 2 h. The negative control group was pre-treated with 10 nM okadaic acid (OA). The blue and green fluorescence stands for signals of nuclei and CAR protein, respectively. The protein expression of nuclear CAR after 6,7-diprenoxycoumarin (50) treatment for 2 h (B).
Hep3B cells (4 × 10^5) were grown on coverslips for overnight then washed twice with 1× PBS and fixed with 4% paraformaldehyde in 1× PBS for 30 min at room temperature. Cells were then permeabilized with 1× PBS containing 0.1% (v/v) Triton X-100 for 10–15 min and blocked in 1× PBS containing 5% BSA for 1 h at room temperature. CAR antibody (1:200 dilutions) was added and reacted at room temperature for 2 h in 1× PBS containing 5% BSA. FITC-conjugated goat anti-rabbit IgG antibody was added for another 1 h at room temperature. Coverslips were mounted and images were acquired under a fluorescence microscope.

[3] abbreviates: Table 1, 10 μM, (luminescence of compound − luminescence of scoparone)/luminescence of scoparone × 100%.
[4] abbreviates: Table 2, 10 μM, (luminescence of compound − luminescence of scoparone)/luminescence of scoparone × 100%.
Setting [5] is: Table 3, 10 μM, (luminescence of compound − luminescence of scoparone)/luminescence of scoparone × 100%.

The record followed here is publication PMC7796031, “Studies of Coumarin Derivatives for Constitutive Androstane Receptor (CAR) Activation” (Molecules, 2020).

“Also recorded” adds a separate entry of the source. Read-outs that look alike come from different tables or passages of the source.

Consider `CC(C)=CCOc1cccc2oc(=O)ccc12` [Compound 6], for which the activation at 10 µM in data set [1] (setting [3]) is -5%. In data set [2] (test compounds as printed), the “suppression of PEPCK mRNA induction” value is on record as “less potent”.

`O=c1ccc2cc(OC(F)(F)F)ccc2o1` [Compound 11, 6-Trifluoromethoxycoumarin] registered a melting point of 83 to 85 °C. Further, the activation at 10 µM in data set [1] (setting [3]) is -34%. With `O=c1ccc2ccc(OC(F)(F)F)cc2o1` [Compound 20, 7-Trifluoromethoxycoumarin], the melting point lay in the range of 69 to 71 °C. Further, the activation at 10 µM in data set [1] (setting [3]) is 18%.

Regarding `O=c1ccc2cc3c(cc2o1)OCCO3` [Compound 41], the activation at 10 µM in data set [1] (setting [4]) is -50%.

Take `CCOc1cc2ccc(=O)oc2cc1OCC` [Compound 42]: the activation at 10 µM in data set [1] (setting [4]) was -26%. Turning to `CC(=O)Oc1cc2ccc(=O)oc2cc1OC(C)=O` [Compound 43], the activation at 10 µM in data set [1] (setting [4]) is -11%. In turn, `C=CCOc1cc2ccc(=O)oc2cc1OCC=C` [Compound 44, 6,7-Dialloxycoumarin] registered a melting point of 84 to 85 °C. The activation at 10 µM in data set [1] (setting [4]) was -18%. On to `CCCOc1cc2ccc(=O)oc2cc1OCCC` [Compound 45], for which the activation at 10 µM in data set [1] (setting [4]) is -37%. Turning to `CCCCOc1cc2ccc(=O)oc2cc1OCCCC` [Compound 46, 6,7-Di-n-butoxycoumarin], the melting point lay in the range of 77 to 79 °C. Also, in data set [1] (setting [4]), the activation at 10 µM was -39%. On to `CC(C)CCOc1cc2ccc(=O)oc2cc1OCCC(C)C` [Compound 48, 6,7-Di-isopentoxycoumarin], for which, in data set [1] (setting [4]), the activation at 10 µM was -61%. Take `CCCCCCOc1cc2ccc(=O)oc2cc1OCCCCCC` [Compound 49, 6,7-Dihexoxycoumarin]: the activation at 10 µM in data set [1] (setting [4]) is -5%. As for `CC(C)=CCC/C(C)=C/COc1cc2ccc(=O)oc2cc1OC/C=C(\C)CCC=C(C)C` [Compound 51, 6,7-Digeranoxycoumarin], the activation at 10 µM in data set [1] (setting [4]) was -32%.

For the compound `COc1cc2oc(=O)ccc2cc1OC1OC(CO)C(O)C(O)C1O` (centres unmarked) [Compound 52, isoscopolin], in data set [1] (10 μM), the “CAR activation compared with scoparone” value is “superior CAR activating activity than scoparone”. Besides, in data set [1] (setting [4]), the activation at 10 µM was 35%.

For `COc1cc2ccc(=O)oc2cc1O[C@@H]1O[C@H](CO)[C@@H](O)[C@H](O)[C@H]1O` [Compound 53, scopolin], the “CAR activation compared with scoparone” value in data set [1] (10 μM) was “superior CAR activating activity than scoparone”. For the same compound, the activation at 10 µM in data set [1] (setting [4]) was 17%. `COc1cc2oc(=O)ccc2c(OC)c1OC` [Compound 54, 5,6,7-trimethoxycoumarin]: the activation at 10 µM in data set [1] (setting [5]) is -19%. As for `COc1cc2oc(=O)ccc2c(OC)c1O` [Compound 55, fraxinol], the activation at 10 µM in data set [1] was -17%. On to `COc1cc(OC)c2ccc(=O)oc2c1OC` [Compound 56], for which the activation at 10 µM in data set [1] (setting [5]) was -14%. For `COc1cc(OC)c2ccc(=O)oc2c1O` [Compound 57, 5,7-dimethoxy-8-hydroxycoumarin], the “CAR activation compared with scoparone” value in data set [1] (10 μM) is “comparable CAR activation effects to scoparone; also recorded: superior CAR activating activity than scoparone”. The activation at 10 µM in data set [1] (setting [5]) was found to be 2%. Consider `COc1cc2ccc(=O)oc2c(OC)c1OC` [Compound 58, 6,7,8-trimethoxycoumarin], for which, in data set [1] (10 μM), the “CAR activation compared with scoparone” value is reported as “comparable CAR activation effects to scoparone”. In addition, the activation at 10 µM in data set [1] (setting [5]) is 0%. For the compound `COc1cc2ccc(=O)oc2c2c1OCO2` [Compound 59, 6-Methoxy-7,8-methylenedioxycoumarin], in data set [1] (10 μM), the “CAR activation compared with scoparone” value was “superior CAR activating activity than scoparone”. In addition, in data set [1] (10 μM, compared to scoparone), the “increased CAR activation fold” value came out at 36%. The activation at 10 µM in data set [1] (setting [5]) was determined as 36%. For `COc1c2c(c3oc(=O)ccc3c1OC)OCO2` [Compound 60, 5,6-dimethoxy-7,8-methylenedioxycoumarin], the “CAR activation compared with scoparone” value in data set [1] (10 μM) is “good activity; also recorded: superior CAR activating activity than scoparone”. In addition, the activation at 10 µM in data set [1] (setting [5]) came out at 12%. As for `C=C1[C@@H](O)[C@@H]2O[C@]3(CC[C@H](/C=C/[C@@H](C)[C@@H]4CC(C)=C[C@@]5(O[C@H](C[C@@](C)(O)C(=O)O)CC[C@H]5O)O4)O3)CC[C@H]2O[C@@H]1[C@@H](O)C[C@H](C)[C@H]1O[C@@]2(CCCCO2)CC[C@H]1C` [okadaic acid, reference compound], the “CAR translocation activity of 50 after pre-treatment” value in the data set on CAR protein is “inhibited”.

For the compound “insulin: Insulin (10 nM) served as an experimental control in the PEPCK assay”, the “suppression of PEPCK mRNA induction” value in data set [2] (10 nM, experimental control) is listed as “suppress such induction”.

What is called melting point is the temperature, or range, at which the solid turns liquid.
